Assay [1] deals with T1, Estrogen receptor (Rattus norvegicus) (UniProt P06211+Q62986). The assay can be described thus: Oral estrogenic activity in uterotropic assay in rats at 40-400 ng dose. The format is functional.
Assay [2] has as its target T1, Estrogen receptor (Rattus norvegicus). The assay can be described thus: Oral estrogenic activity in uterotropic assay in rats at 20-200 ng dose. It counts as functional.
Assay [3] has the same target.
Description: Oral estrogenic activity in uterotropic assay in rats at 100-1000 ng dose
The target is the same in assay [4]. Description: Oral estrogenic activity in uterotropic assay in rats at 40-1000 ng dose. The format is functional.
Assay [5] has the same target. This is another data set of the same source.
Description: Oral estrogenic activity in uterotropic assay in rats at 400-4000ng dose

Turning to `CC12CCC3c4ccc(O)cc4CCC3C1OCC2=O` (stereo not given), in assay [1], the Weight was -32.1 mg. The molecule `CC12CCC3c4ccc(O)cc4CCC3C1OC[C@@H]2O` (stereo not given in full) showed a Weight in assay [2] of -7.8 mg. The molecule `C#C[C@]1(O)COC2C3CCc4cc(OC)ccc4C3CCC21C` (stereo not given in full) returned a Weight in assay [3] of -23.9 mg.

`CC12CCC3c4ccc(OC5CCCC5)cc4CCC3C1OCC2=O` (stereo not given) displayed a Weight in assay [4] of -52.2 mg. For the molecule `C[C@]12CC[C@@H]3c4ccc(O)cc4CC[C@H]3[C@@H]1CCC2=O`, in assay [5], the Weight is -120 mg.

For the origin of these results see ChEMBL document CHEMBL1121575, “Synthesis and biological activity of some 15-oxaestranes” (J Med Chem, 1980).
